Test results reported in patent publication US20260001875A1, “AMINOPYRIMIDINYL DERIVATIVES FOR THE TREATMENT OF PARKINSON'S DISEASE” (UNIVERSITY OF DUNDEE, priority 2022, published 2026).
Like-named read-outs stand apart in the source and are kept apart here.

Legend:
[1] = test system: LRRK2^WT; test: Western blot LRRK2 degradation in WT MEFs; format: cell-based, mouse; settings: WT MEFs and LRRK2^G2019S MEFs
Experimental: (§1) Western blot degradation assays for the LRRK2 protacs were performed with WT and PD-associated LRRK2 [G2019S] mouse embryonic fibroblasts (MEFs). The second-generation PROTACs were tested in parallel with the first generation PROTACs SD75, SD82, and SD100. The compounds were tested at 33 nM or […] concentrations for 4 hours or 24 hours, running two biological replicates per condition and achieving quantifications representative of both replicates. Analysis by quantitative immunoblotting was performed with readouts of the total LRRK2 (antibody recognizes epitope in C-terminus of protein), Rab10 pThr73 (physiological substrate) and LRRK2 pSer935 (biomarker phosphorylation site).
(§2) Primary MEFs were generated as described in a previous study (Wiggin et al., Mol. Cell Biol. 2002 April; 22(8):2871-81.). Briefly, the uterine horn was collected from adult female mice at day E12.5 and transferred to a 10 cm tissue culture dish containing cold PBS. Two forceps were used to tear the yolk sacs to isolate each embryo. Forceps were cleaned thoroughly with 70% ethanol between each embryo isolation. The embryos were culled, and a tissue piece was collected in a PCR tube for genotyping. The red tissue of the embryo, which grows to become the heart and liver, was removed. The remainder of the embryo was minced with a scalpel blade and incubated with 7.5 ml trypsin-EDTA solution for 10 minutes in a 37° C. tissue culture CO2 incubator. The dish was removed from the incubator and checked under a light microscope for single cells. 7.5 ml complete media was added to the trypsinised cells, and the cell suspension was transferred to a 15 ml Falcon tube, centrifuged at 1200 rpm for 5 minutes at room temperature. The trypsin was aspirated, the cell pellet was resuspended in 5 ml fresh complete media, and the cell suspension was plated in a 60 mm tissue culture dish and incubated in a 37° C., 5% CO2 tissue culture incubator. The MEFs at this stage were considered as passage 0 and were passaged and expanded for experimental use once the genotype was confirmed by allelic sequencing and immunoblotting. MEFs were cultured in Dulbecco's modified Eagle medium (DMEM) containing 10% (v/v) fetal bovine serum (FBS), 2 mM L-glutamine, 100 U/ml penicillin, and 100 μg/ml streptomycin supplemented with 1× non-essential amino acids and 1 mM sodium pyruvate.
(§3) Culturing and passaging of adherent cell lines were carried out using aseptic technique in CL1 or CL2 (for PBMC isolation) biological safety cabinets. All cells were incubated in a 37° C. incubator with 5% CO2. Cell lines were regularly tested for mycoplasma contamination. For western blot assay, the cells were seeded in 6-well plates. After treating with testing compounds at indicated concentrations and time period, the media was removed and the cells were washed with PBS and lysed in 100 μl ice-cold complete lysis buffer containing 50 mM Tris-HCl pH 7.4, 1 mM EGTA, 10 mM 2-glycerophosphate, 50 mM sodium fluoride, 5 mM sodium pyrophosphate, 270 mM sucrose, supplemented with 1 μg/ml microcystin-LR, 1 mM sodium orthovanadate, complete EDTA-free protease inhibitor cocktail (Roche) and 1% (v/v) Triton X-100. The cells were immediately placed on ice and were scraped and collected into 1.5 ml Eppendorf tubes. Cell lysates were incubated on ice for 10 minutes prior to centrifugation at 15,000 g at 4° C. for 15 minutes. The cell pellet was discarded, and supernatant was collected for analysis by quantitative immunoblotting. For long term storage, the supernatant was flash frozen and stored at −80° C. Protein concentrations of cell lysates were determined using the Bradford assay.
(§4) Cell lysates containing a quarter of a volume of 4× NuPAGE LDS sample buffer (NP0007) supplemented with 5% β-mercaptoethanol, were heated at 95° C. for 5 minutes. […]

[2] = test system: Rab10 pThr73; test: Rab10 Thr73 dephosphorylation (immunoblot) in LRRK2^G2019S MEFs; format: cell-based; settings: Mus musculus, read-out: pRab10 inhibited in LRRK2^G2019S MEFs
[3] = test system: Rab10 pThr73; test: Rab10 Thr73 dephosphorylation (immunoblot) in WT MEFs; format: cell-based, mouse; settings: Mus musculus; for inhibition at 0.033 µM / inhibition at 1 µM: read-out: pRab10 inhibited in WT MEFs; for EC50: dose response, 4 h treatment, read-out: WT MEFs pRab10-dephosphrylation EC50
Outline: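 Wild-type mouse embryonic fibroblasts in 6-well plates were treated with LRRK2 PROTACs, with two biological replicates per condition. Cells were washed in PBS and lysed on ice in buffer containing phosphatase and protease inhibitors plus 1% Triton X-100, then clarified at 15,000 g. Rab10 Thr73 phosphorylation was measured by quantitative immunoblotting of 15 to 20 μg protein on 4-12% Bis-Tris gels.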

[4] = test system: Rab10 pThr73; test: Rab10 Thr73 dephosphorylation (immunoblot) in LRRK2^G2019S MEFs; format: cell-based, mouse; settings: Mus musculus; for inhibition at 1 µM: read-out: pRab10 inhibited in LRRK2^G2019S MEFs; for EC50: dose response, 4 h treatment, read-out: G2019S MEFs-pRab10-dephosphorylation EC50
[5] = molecular target: T1, LRRK2^WT (Mus musculus, UniProt Q5S006); test: Western blot LRRK2 degradation in WT MEFs; format: cell-based; settings: for Dmax: read-out: Dmax on WT MEFs
T1 construct: endogenous in cells; host or cells: primary wild-type mouse embryonic fibroblasts (MEFs)
Experimental: as §1, §2, §3, §4

[6] = molecular target: T2, LRRK2^G2019S (Mus musculus, UniProt Q5S006, G2019S); test: Western blot LRRK2 degradation in LRRK2^G2019S MEFs; format: cell-based; settings: for Dmax: read-out: Dmax on G2019S MEFs
T2 construct: endogenous in cells; host or cells: LRRK2[G2019S] mouse embryonic fibroblasts (MEFs)
Experimental: as §1, with “The” for “Western blot degradation assays for the LRRK2 protacs were performed with WT and PD-associated LRRK2 [G2019S] mouse embryonic fibroblasts (MEFs). The”
as §2
Culturing and passaging of adherent cell lines were carried out using aseptic technique in CL1 or CL2 (for PBMC isolation) biological safety cabinets. All cells were incubated in a 37° C. incubator with 5% CO2. Cell lines were regularly tested for mycoplasma contamination. For western blot assay, the cells were seeded in 6-well plates. […] The cells were immediately placed on ice and were scraped and collected into 1.5 ml Eppendorf tubes. Cell lysates were incubated on ice for 10 minutes prior to centrifugation at 15,000 g at 4° C. for 15 minutes. The cell pellet was discarded, and supernatant was collected for analysis by quantitative immunoblotting. For long term storage, the supernatant was flash frozen and stored at −80° C. Protein concentrations of cell lysates were determined using the Bradford assay.
Cell lysates containing a quarter of a volume of 4× NuPAGE LDS sample buffer (NP0007) supplemented with 5% β-mercaptoethanol, were heated at 95° C. for 5 minutes. 15 to 20 μg of samples were loaded onto pre-cast 4-12% Bis-Tris midi 20W or 26W gels (Thermofisher Scientific®, Cat #WG1402BOX or WG1403BOX) and resolved at 130 V for 2 hours with NuPAGE MOPS SDS running buffer (Thermofisher Scientific® Cat #NP0001-02). Proteins were electrophoretically transferred onto a 0.45 μm nitrocellulose membrane (GE Healthcare, Amersham Protran® Supported 0.45 mm NC) at 90 V for 90 min on ice in transfer buffer (48 mM Tris base and 39 mM glycine supplemented with 20% methanol). The transferred membrane was blocked with 5% (w/v) skim milk powder dissolved in tris-buffered saline with tween (TBS-T) (50 mM Tris base, 150 mM sodium chloride (NaCl), 0.1% (v/v) Tween-20) at room temperature for 1 hour.

T2 sequence (Q5S006 whole entry G2019S): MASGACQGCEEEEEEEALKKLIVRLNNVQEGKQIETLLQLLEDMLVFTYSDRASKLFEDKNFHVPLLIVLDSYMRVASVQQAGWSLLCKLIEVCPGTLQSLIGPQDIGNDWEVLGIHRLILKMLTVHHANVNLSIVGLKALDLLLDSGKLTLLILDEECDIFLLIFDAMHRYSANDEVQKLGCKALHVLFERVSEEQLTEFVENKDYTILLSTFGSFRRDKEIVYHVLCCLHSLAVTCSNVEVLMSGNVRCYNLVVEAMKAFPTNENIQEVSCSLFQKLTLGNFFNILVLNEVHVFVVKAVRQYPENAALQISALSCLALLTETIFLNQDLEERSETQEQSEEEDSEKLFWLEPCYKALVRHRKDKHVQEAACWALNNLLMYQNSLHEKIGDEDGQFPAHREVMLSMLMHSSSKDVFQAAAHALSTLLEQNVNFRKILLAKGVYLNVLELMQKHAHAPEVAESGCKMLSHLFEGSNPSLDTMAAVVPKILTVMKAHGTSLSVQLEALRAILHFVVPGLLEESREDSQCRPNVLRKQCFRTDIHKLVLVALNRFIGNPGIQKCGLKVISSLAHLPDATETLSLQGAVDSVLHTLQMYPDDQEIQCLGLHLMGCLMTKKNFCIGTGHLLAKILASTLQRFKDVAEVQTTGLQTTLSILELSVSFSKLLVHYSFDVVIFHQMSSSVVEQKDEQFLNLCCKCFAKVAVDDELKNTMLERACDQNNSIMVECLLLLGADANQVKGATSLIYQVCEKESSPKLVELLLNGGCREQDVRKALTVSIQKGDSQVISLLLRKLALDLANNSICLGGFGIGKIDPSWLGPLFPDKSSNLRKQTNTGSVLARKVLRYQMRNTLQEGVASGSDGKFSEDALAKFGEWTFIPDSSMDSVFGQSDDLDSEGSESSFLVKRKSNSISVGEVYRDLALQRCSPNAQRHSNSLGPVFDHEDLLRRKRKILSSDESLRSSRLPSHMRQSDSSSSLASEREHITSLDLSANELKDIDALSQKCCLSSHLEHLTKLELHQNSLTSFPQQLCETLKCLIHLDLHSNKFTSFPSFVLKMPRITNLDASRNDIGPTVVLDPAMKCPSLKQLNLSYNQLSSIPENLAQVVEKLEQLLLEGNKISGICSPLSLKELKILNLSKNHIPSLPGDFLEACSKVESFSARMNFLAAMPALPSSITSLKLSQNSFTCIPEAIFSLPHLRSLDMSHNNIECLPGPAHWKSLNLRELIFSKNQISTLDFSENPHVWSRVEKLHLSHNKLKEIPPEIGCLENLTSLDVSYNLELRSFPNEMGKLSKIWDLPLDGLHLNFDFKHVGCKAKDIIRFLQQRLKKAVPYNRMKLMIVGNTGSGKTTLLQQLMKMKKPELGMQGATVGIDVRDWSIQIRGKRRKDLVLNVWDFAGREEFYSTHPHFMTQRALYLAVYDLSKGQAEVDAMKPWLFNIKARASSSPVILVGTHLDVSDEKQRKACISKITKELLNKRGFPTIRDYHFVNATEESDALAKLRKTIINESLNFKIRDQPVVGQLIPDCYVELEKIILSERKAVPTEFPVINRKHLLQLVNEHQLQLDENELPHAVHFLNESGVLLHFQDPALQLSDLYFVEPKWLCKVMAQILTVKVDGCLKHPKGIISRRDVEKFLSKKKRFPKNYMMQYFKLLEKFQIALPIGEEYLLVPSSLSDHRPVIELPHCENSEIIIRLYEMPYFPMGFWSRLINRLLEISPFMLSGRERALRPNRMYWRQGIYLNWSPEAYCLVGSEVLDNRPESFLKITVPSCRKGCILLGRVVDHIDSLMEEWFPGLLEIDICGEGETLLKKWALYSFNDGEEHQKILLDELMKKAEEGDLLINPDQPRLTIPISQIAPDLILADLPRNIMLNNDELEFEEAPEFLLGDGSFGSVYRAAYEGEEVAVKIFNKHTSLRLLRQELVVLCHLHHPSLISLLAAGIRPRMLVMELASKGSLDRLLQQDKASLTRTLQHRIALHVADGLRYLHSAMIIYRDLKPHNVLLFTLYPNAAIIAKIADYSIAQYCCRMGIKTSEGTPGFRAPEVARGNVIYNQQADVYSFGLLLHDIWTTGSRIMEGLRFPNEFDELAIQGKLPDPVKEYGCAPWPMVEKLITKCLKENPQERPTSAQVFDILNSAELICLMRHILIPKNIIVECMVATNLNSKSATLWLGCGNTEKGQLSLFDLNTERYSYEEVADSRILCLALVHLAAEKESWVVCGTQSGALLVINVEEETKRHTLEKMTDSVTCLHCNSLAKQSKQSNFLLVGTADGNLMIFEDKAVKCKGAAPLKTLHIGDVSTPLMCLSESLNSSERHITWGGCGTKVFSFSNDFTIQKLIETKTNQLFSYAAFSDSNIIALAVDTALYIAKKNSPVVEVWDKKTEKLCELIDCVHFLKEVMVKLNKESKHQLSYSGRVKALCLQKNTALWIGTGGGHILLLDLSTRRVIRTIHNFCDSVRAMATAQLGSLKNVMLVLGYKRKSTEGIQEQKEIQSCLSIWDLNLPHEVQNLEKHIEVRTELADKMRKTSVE
T1 sequence (Q5S006 whole entry): as the sequence (Q5S006 whole entry G2019S) above, with S2019G counted along it

SMILES	LRRK2 degradation (in words) [1]	inhibition at 0.033 µM ([2]; 33 nM/4 h treatment) [%]	inhibition at 0.033 µM ([2]; 33 nM/24 h treatment) [%]	inhibition at 0.033 µM ([3]; 33 nM/4 h treatment) [%]	inhibition at 1 µM ([3]; 1 μM/4 h treatment) [%]	inhibition at 1 µM ([3]; 1 μM/24 h treatment) [%]	inhibition at 1 µM ([4]; 1 μM/4 h treatment) [%]	Dmax ([5]; dose response, 4 h treatment) [%]	Dmax ([6]; dose response, 4 h treatment) [%]	inhibition at 0.033 µM ([3]; 33 nM/24 h treatment) [%]	EC50 [3] [nM]	inhibition at 1 µM ([4]; 1 μM/24 h treatment) [%]	EC50 [4] [nM]	DC50 ([5]; dose response, 4 h treatment) [nM]	Dmax [5] [%]	DC50 ([6]; dose response, 4 h treatment) [nM]	Dmax [6] [%]
CNc1nc(Nc2ccc(C(=O)N3CCN(CCCSC(C)(C)[C@H](NC(=O)C4(F)CC4)C(=O)N4C[C@H](O)C[C@H]4C(=O)NCc4ccc(-c5scnc5C)cc4)CC3)cc2OC)ncc1Cl [SD82, (2S,4R)-1-((R)-3-((3-(4-(4-((5-chloro-4-(methylamino)pyrimidin-2-yl)amino)-3-methoxybenzoyl)piperazin-1-yl)propyl)thio)-2-(1-fluorocyclopropane-1-carboxamido)-3-methylbutanoyl)-4-hydroxy-N-(4-(4-methylthiazol-5-yl)benzyl)pyrrolidine-2-carboxamide]	moderate LRRK2 degradation	0 to 60	0 to 70	0 to 25	18 to 90	30 to 90	30 to 95										
CNc1nc(Nc2ccc(C(=O)N3CCN(C[C@H]4CC[C@@H](CSC(C)(C)[C@H](NC(=O)C5(F)CC5)C(=O)N5C[C@H](O)CC5C(=O)N[C@@H](C)c5ccc(-c6scnc6C)cc5)CC4)CC3)cc2OC)ncc1Cl (stereo partly drawn) [XL02060, (2S,4R)-1-((R)-3-((((1s,4S)-4-((4-(4-((5-chloro-4-(methylamino)pyrimidin-2-yl)amino)-3-methoxybenzoyl)piperazin-1-yl)methyl)cyclohexyl)methyl)thio)-2-(1-fluorocyclopropane-1-carboxamido)-3-methylbutanoyl)-4-hydroxy-N—((S)-1-(4-(4-methylthiazol-5-yl)phenyl)ethyl)pyrrolidine-2-carboxamide]		0 to 90	30 to 90	0 to 70	80 to 100	80 to 100	10 to 100	71	78.5	0 to 80	32	80 to 100	27				
CNc1nc(Nc2ccc(C(=O)N3CCN(C(=O)[C@H]4CC[C@H](CSC(C)(C)[C@H](NC(=O)C5(F)CC5)C(=O)N5C[C@H](O)CC5C(=O)NCc5ccc(-c6scnc6C)cc5)CC4)CC3)cc2OC)ncc1Cl (stereo partly drawn) [XL02068, (2S,4R)-1-((R)-3-((((1R,4R)-4-(4-(4-((5-chloro-4-(methylamino)pyrimidin-2-yl)amino)-3-methoxybenzoyl)piperazine-1-carbonyl)cyclohexyl)methyl)thio)-2-(1-fluorocyclopropane-1-carboxamido)-3-methylbutanoyl)-4-hydroxy-N-(4-(4-methylthiazol-5-yl)benzyl)pyrrolidine-2-carboxamide]		0 to 90	30 to 90	0 to 70	80 to 100	80 to 100	10 to 100			0 to 80	272	80 to 100	150	93	89	103	87
CNc1nc(Nc2ccc(C(=O)N3CCN(C[C@H]4CC[C@H](CSC(C)(C)[C@H](NC(=O)C5(F)CC5)C(=O)N5C[C@H](O)[C@H](F)C5C(=O)NCc5ccc(-c6scnc6C)cc5)CC4)CC3)cc2OC)ncc1Cl (stereo partly drawn) [XL02152, (2S,3R,4S)-1-((R)-3-((((1r,4R)-4-((4-(4-((5-chloro-4-(methylamino)pyrimidin-2-yl)amino)-3-methoxybenzoyl)piperazin-1-yl)methyl)cyclohexyl)methyl)thio)-2-(1-fluorocyclopropane-1-carboxamido)-3-methylbutanoyl)-3-fluoro-4-hydroxy-N-(4-(4-methylthiazol-5-yl)benzyl)pyrrolidine-2-carboxamide]		20 to 50		20 to 40	75 to 90		80 to 100				144		63	62	68	44	80
